Key:
rat hippocampal neurons [1] = experiment: LDH leakage from cultured rat hippocampal neurons exposed to Aβ1-40; assay type: cell-based
Protocol: (§1) The cultured rat hippocampal neurons were prepared by the following procedure.
From the 18-day viviparous SD rat brain, the hippocampus was isolated on ice and treated with 0.25% trypsin and 0.1 mg/ml deoxyribonuclease I in Hank's solution at 37° C. for 10 minutes. The enzyme-treated cells were collected with a filter and suspended in Eagle's MEM containing 50 U/ml penicillin, 50 μg/ml streptomycin, 10% fetal calf serum, and 1% B27 Supplement (GIBCO). The suspension was diluted and seeded on a 48-well plate (COSTAR) precoated with poly-L-lysine, 100,000 cells/300 μl/well. Culture was carried out in the presence of 5% carbon dioxide gas at 37° C. […] On day 7 of culture, the medium was further replaced with MEM-N2 containing Aβ1-40 (Bachem) and the test drug, and the efficacy of the drug against the toxicity of Aβ1-40 was evaluated.
(§2) The lactate dehydrogenase (LDH) activity released extracellularly from the injured cells into the medium was assayed over 3-5 days after treatment and the toxicity was evaluated using the assayed activity as an indicator. In addition, on day 4 after addition of the drug, the cells were fixed with 4% paraformaldehyde, stained with anti-MAP2 antibody (Amersham) and randomly photographed under the microscope, and the number of neurons per visual field was counted.

rat hippocampal neurons [2] = experiment: Number of viable neurons (anti-MAP2 staining) after Aβ1-40; assay type: cell-based; settings: Aβ1-40 10 μM, day 4 after addition, FIG. 3
Protocol: as §1
From the 18-day viviparous SD rat brain, the hippocampus was isolated on ice and treated with 0.25% trypsin and 0.1 mg/ml deoxyribonuclease I in Hank's solution at 37° C. for 10 minutes. The enzyme-treated cells were collected with a filter and suspended in Eagle's MEM containing 50 U/ml penicillin, 50 μg/ml streptomycin, 10% fetal calf serum, and 1% B27 Supplement (GIBCO). The suspension was diluted and seeded on a 48-well plate (COSTAR) precoated with poly-L-lysine, 100,000 cells/300 μl/well. Culture was carried out in the presence of 5% carbon dioxide gas at 37° C. On day 4 of culture, the medium was replaced with Eagle's MEM (MEM-N2) containing 50 U/ml penicillin, 50 μg/ml streptomycin, 10 mM HEPES-Na (pH 7.3) and N2 Supplement. On day 7 of culture, the medium was further replaced with MEM-N2 containing Aβ1-40 (Bachem) and the test drug, and the efficacy of the drug against the toxicity of Aβ1-40 was evaluated.
as §2

[3] = test system: patients with Alzheimer's disease; settings: 90 mg or 120 mg 3 times a day (270 or 360 mg per day), 6 months; cited from earlier work
[4] = test system: Alzheimer type senile dementia; settings: cited from earlier work
[5] = test system: rat retinal neuron-neuroblastoma hybrid N18-RE-105 cells; settings: cited from earlier work
cultured nerve cells = settings: cited from earlier work

Compound: COC1=C(OC)C(=O)C(CCCCCCCCCCO)=C(C)C1=O [idebenone, 6-(10-hydroxydecyl)-2,3-dimethoxy-5-methyl-1,4-benzoquinone]
- release of LDH (rat hippocampal neurons [1]; idebenone 100 nM, Aβ1-40 10 μM, 3-5 days following addition, FIG. 2): suppressed the release of LDH
- neuronal death (rat hippocampal neurons [2]; idebenone 100 nM): inhibited neuronal death significantly
- number of viable cells (rat hippocampal neurons [2]; idebenone 100 nM, anti-MAP2 antibody): approximately equal to the number of viable cells in the control group
- GOT time course [3]: the changes were small with substantially no difference from the control values
- GPT time course [3]: the changes were small with substantially no difference from the control values
- efficacy in Alzheimer type senile dementia ([4]; 90 mg daily to adult patients): efficacy
- clinical effect in Alzheimer type senile dementia ([4]; high doses (270 mg-360 mg day per adult)): clinically effective
- glutamate-induced neuronal death [5]: suppresses glutamate-induced neuronal death
- neuroprotection / reactive oxygen species scavenging [5]: exerts the neuroprotection by the reactive oxygen species scavenging activity

Compound: Aβ1-40: β-amyloid protein 1-40 (Bachem)
- leakage of LDH activity into the medium (toxicity) (rat hippocampal neurons [1]; 3-5 days after addition of Aβ1-40, FIG. 1): dose-dependent toxicity
- number of neurons (rat hippocampal neurons [2]): decline in the number of neurons

Compound: β-amyloid
- neuronal toxicity (cultured nerve cells): shows neuronal toxicity

Source: patent publication US6271266A (Takeda Chemical Industries, Ltd., priority 1996, dated 2001)
